Results from patent US20220315771A1, “REVERSIBLE CULTURAL RELIC PROTECTION MATERIAL WITH FUNCTION OF INHIBITING GROWTH OF BACTERIA AND MOLD” (SHANGHAI UNIVERSITY, priority 2019, published 2022).

Tested on: E. coli
Assay: Bacterial resistance test: solid 1 mm cube placed in E. coli solution, growth followed by OD600
Settings: E. coli solution with starting OD600 0.45

Measured: OD600 value

Method: B) The block was putted into an E. coli solution with an OD600 value of 0.45, and the growth of the bacteria was observed.
The antibacterial properties of bacterial in the experimental groups 1 to 5 and the control group were tested, and the OD600 values represent the growth of bacterial cells.

CCc1occc(=O)c1O [experimental group 3, ethyl maltol]
lowest: at 12 hours, control group 0.55 | at 24 hours, control group 0.48 | at 2 days, control group 0.61 | at 3 days, control group 0.47
